Reference: patent publication US11731968B2, “Tricyclic protein kinase inhibitors for promoting liver regeneration or reducing or preventing hepatocyte death” (HEPAREGENIX GMBH, priority 2018, dated 2023)

What was measured:
MKK4 = molecular target: T1, MKK4 (Homo sapiens, UniProt P45985); test: KINOMEscan competition binding assay, MKK4 potency; conditions: compound concentration 100 nM; lower numbers indicate stronger binding
T1 construct: S84/D399; host or cells: HEK-293
T1 sequence (P45985 84-399): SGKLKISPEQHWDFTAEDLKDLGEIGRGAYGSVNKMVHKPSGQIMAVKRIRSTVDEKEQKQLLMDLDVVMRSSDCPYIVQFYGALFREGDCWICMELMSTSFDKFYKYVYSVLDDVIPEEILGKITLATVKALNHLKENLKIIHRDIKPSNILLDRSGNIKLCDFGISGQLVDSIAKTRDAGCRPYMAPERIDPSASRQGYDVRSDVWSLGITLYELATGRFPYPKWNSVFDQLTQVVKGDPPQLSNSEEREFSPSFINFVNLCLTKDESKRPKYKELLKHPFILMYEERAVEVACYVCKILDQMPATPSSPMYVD
Procedure: (§1) The assay was performed by combining three components: DNA-tagged kinase; immobilized ligand; and a test compound. The ability of the test compound to compete with the immobilized ligand was measured via quantitative PCR of the DNA tag. The technology is described in detail in Fabian, M. A. et al., A small molecule-kinase interaction map for clinical kinase inhibitors. Nat.
(§2) For investigation of the affinity to MKK4, MKK7 and JNK1, the kinases were produced in HEK-293 cells and subsequently tagged with DNA for qPCR detection. […] The liganded beads were blocked with excess biotin and washed with blocking buffer (SEABLOCK™ (Pierce), 1% BSA, 0.05% TWEEN®20, 1 mM DTT) to remove unbound ligand and to reduce nonspecific binding. […] All reactions were performed in polystyrene 96-well plates in a final volume of 0.135 mL. […] The kinase concentration in the eluates was measured by qPCR.
(§3) The test compounds were provided as 10 mM stock solutions. The test solutions at indicated final concentrations were prepared at DiscoverX.

MKK7 = molecular target: T2, MKK7 (Homo sapiens, UniProt O14733); test: KINOMEscan competition binding, selectivity against off-target MKK7 (PoC ratio MKK7/MKK4); conditions: compound concentration 100 nM
T2 construct: M1/R419; host or cells: HEK-293
T2 sequence (O14733 1-419): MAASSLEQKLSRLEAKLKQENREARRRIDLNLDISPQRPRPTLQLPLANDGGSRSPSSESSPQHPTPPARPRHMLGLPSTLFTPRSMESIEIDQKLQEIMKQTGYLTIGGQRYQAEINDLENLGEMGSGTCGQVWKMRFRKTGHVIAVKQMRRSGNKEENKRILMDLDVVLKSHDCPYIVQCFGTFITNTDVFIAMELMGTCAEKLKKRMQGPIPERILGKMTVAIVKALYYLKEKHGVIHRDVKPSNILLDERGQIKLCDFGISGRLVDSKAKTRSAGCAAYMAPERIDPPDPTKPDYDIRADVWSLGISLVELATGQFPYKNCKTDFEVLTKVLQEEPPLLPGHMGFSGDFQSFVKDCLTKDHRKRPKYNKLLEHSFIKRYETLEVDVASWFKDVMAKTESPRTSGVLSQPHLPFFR
Procedure: as §1, §2, §3

JNK1 = molecular target: T3, JNK1 (Homo sapiens, UniProt P45983); test: KINOMEscan competition binding, selectivity against off-target JNK1 (PoC ratio JNK1/MKK4); conditions: compound concentration 100 nM
T3 construct: M1/Q384; host or cells: HEK-293
T3 sequence (P45983 1-384 isoform P45983-2): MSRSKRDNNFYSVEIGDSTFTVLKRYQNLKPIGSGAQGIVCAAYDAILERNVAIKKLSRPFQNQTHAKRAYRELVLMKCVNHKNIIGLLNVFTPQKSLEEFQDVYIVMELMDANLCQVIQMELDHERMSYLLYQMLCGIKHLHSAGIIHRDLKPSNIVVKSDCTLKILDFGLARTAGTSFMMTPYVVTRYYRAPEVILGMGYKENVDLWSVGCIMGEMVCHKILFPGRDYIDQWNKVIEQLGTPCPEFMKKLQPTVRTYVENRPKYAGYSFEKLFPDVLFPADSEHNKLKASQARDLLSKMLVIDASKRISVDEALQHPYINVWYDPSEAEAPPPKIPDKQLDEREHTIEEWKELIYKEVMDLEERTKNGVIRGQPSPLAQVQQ
Procedure: as §1, §2, §3

BRaf = BRaf (Homo sapiens, UniProt P15056); test: KINOMEscan competition binding, selectivity against off-target BRaf (PoC ratio BRaf/MKK4); conditions: compound concentration 100 nM
Chain of BRaf (P15056 whole entry): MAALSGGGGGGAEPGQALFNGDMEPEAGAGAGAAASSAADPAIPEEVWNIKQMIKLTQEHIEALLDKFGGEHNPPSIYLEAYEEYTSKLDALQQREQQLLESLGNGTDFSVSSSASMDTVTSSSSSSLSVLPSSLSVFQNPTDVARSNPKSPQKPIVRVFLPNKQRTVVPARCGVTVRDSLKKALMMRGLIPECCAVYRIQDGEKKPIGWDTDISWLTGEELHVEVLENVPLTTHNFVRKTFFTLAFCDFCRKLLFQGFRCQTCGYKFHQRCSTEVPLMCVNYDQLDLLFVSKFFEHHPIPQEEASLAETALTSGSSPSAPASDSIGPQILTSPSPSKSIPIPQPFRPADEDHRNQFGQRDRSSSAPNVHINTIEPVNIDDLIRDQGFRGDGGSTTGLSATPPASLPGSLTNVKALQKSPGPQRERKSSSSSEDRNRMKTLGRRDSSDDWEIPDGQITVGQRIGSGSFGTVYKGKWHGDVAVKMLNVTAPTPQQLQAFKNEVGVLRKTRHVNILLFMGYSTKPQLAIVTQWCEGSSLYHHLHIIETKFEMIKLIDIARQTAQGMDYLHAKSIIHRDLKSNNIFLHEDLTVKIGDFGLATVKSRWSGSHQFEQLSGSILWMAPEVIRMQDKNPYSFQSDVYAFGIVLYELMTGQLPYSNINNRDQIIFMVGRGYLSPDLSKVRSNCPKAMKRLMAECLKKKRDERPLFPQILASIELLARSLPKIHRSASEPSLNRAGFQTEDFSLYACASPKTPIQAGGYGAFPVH
Procedure: as §1, §3

For `CCS(=O)(=O)Nc1ccc(F)c(C(=O)c2ccc3[nH]c4ncc(-c5ccc(S(N)(=O)=O)cc5)cc4c3c2)c1F` [Example 4k], the “MKK4 residual percent of control binding (PoC)” value (from here on “MKK4 residual percent”) (MKK4) was “+ + +”, the “Selectivity vs. MKK7, ratio PoC(MKK7)/PoC(MKK4)” value (MKK7) was “+++ (PoC(MKK7)/PoC(MKK4) ≥ 30 = “+++”)” and the “Selectivity vs. JNK1, ratio PoC(JNK1)/PoC(MKK4)” value (JNK1) was “+++ (PoC(JNK1)/PoC(MKK4) ≥ 30 = “+++”)”. The “Selectivity vs. BRaf, ratio PoC(BRaf)/PoC(MKK4)” value (BRaf) was “+++ (PoC(BRaf)/PoC(MKK4) ≥ 30 = “+++”)”.
`CCCS(=O)(=O)Nc1ccc(F)c(C(=O)c2ccc3[nH]c4ncc(-c5ccc(C(=O)O)cc5)cc4c3c2)c1F` [Example 4n] was tested, and the “MKK4 residual percent” value (MKK4) was “+ + +”, the “Selectivity vs. MKK7, ratio PoC(MKK7)/PoC(MKK4)” value (MKK7) was “+++ (PoC(MKK7)/PoC(MKK4) ≥ 30 = “+++”)” and the “Selectivity vs. JNK1, ratio PoC(JNK1)/PoC(MKK4)” value (JNK1) was “+++ (PoC(JNK1)/PoC(MKK4) ≥ 30 = “+++”)”. The “Selectivity vs. BRaf, ratio PoC(BRaf)/PoC(MKK4)” value (BRaf) was “+++ (PoC(BRaf)/PoC(MKK4) ≥ 30 = “+++”)”.
For `CCCS(=O)(=O)Nc1ccc(F)c(C(=O)c2ccc3[nH]c4ncc(-c5ccc(OCC(O)CO)cc5)cc4c3c2)c1F` (centres unmarked) [Example 4m], the “MKK4 residual percent” value (MKK4) was “+ + +”, the “Selectivity vs. MKK7, ratio PoC(MKK7)/PoC(MKK4)” value (MKK7) was “+++ (PoC(MKK7)/PoC(MKK4) ≥ 30 = “+++”)” and the “Selectivity vs. JNK1, ratio PoC(JNK1)/PoC(MKK4)” value (JNK1) was “+++ (PoC(JNK1)/PoC(MKK4) ≥ 30 = “+++”)”. The “Selectivity vs. BRaf, ratio PoC(BRaf)/PoC(MKK4)” value (BRaf) was “+++ (PoC(BRaf)/PoC(MKK4) ≥ 30 = “+++”)”.
In the case of `CS(=O)(=O)Nc1c(F)ccc(C(=O)c2ccc3[nH]c4ncc(Cl)cc4c3c2)c1F` [Example 9, N-(3-(3-chloro-9H-pyrido[2,3-b]indole-6-carbonyl)-2,6-difluorophenyl)methanesulfonamide], the “MKK4 residual percent” value (MKK4) is reported as “+ + +”, the “Selectivity vs. MKK7, ratio PoC(MKK7)/PoC(MKK4)” value (MKK7) is reported as “+++ (PoC(MKK7)/PoC(MKK4) ≥ 30 = “+++”)” and the “Selectivity vs. JNK1, ratio PoC(JNK1)/PoC(MKK4)” value (JNK1) is reported as “+++ (PoC(JNK1)/PoC(MKK4) ≥ 30 = “+++”)”. The “Selectivity vs. BRaf, ratio PoC(BRaf)/PoC(MKK4)” value (BRaf) was “+++ (PoC(BRaf)/PoC(MKK4) ≥ 30 = “+++”)”.
For `CCCS(=O)(=O)Nc1cccc(C(=O)c2ccc3[nH]c4ncc(Cl)cc4c3c2)c1F` [Example 8, N-(3-(3-chloro-9H-pyrido[2,3-b]indole-6-carbonyl)-2-fluorophenyl)propane-1-sulfonamide], the “MKK4 residual percent” value (MKK4) was “+ (10 ≤ PoC < 30 = “+”)”, the “Selectivity vs. MKK7, ratio PoC(MKK7)/PoC(MKK4)” value (MKK7) was “+++ (PoC(MKK7)/PoC(MKK4) ≥ 30 = “+++”)” and the “Selectivity vs. JNK1, ratio PoC(JNK1)/PoC(MKK4)” value (JNK1) was “+++ (PoC(JNK1)/PoC(MKK4) ≥ 30 = “+++”)”. The “Selectivity vs. BRaf, ratio PoC(BRaf)/PoC(MKK4)” value (BRaf) was “+++ (PoC(BRaf)/PoC(MKK4) ≥ 30 = “+++”)”.
`CCCS(=O)(=O)Nc1ccc(F)c(C(=O)c2ccc3[nH]c4ncc(-c5ccncc5)cc4c3c2)c1F` [Example 4a] was tested, and the “MKK4 residual percent” value (MKK4) was “+ + +”, the “Selectivity vs. MKK7, ratio PoC(MKK7)/PoC(MKK4)” value (MKK7) was “+++ (PoC(MKK7)/PoC(MKK4) ≥ 30 = “+++”)” and the “Selectivity vs. JNK1, ratio PoC(JNK1)/PoC(MKK4)” value (JNK1) was “+++ (PoC(JNK1)/PoC(MKK4) ≥ 30 = “+++”)”. The “Selectivity vs. BRaf, ratio PoC(BRaf)/PoC(MKK4)” value (BRaf) was “+++ (PoC(BRaf)/PoC(MKK4) ≥ 30 = “+++”)”.
In the case of `CCCS(=O)(=O)Nc1ccc(F)c(C(=O)c2ccc3[nH]c4ncc(-c5ccc(N)nc5)cc4c3c2)c1F` [Example 7, N-(3-(3-(6-aminopyridin-3-yl)-9H-pyrido[2,3-b]indole-6-carbonyl)-2,4-difluorophenyl)propane-1-sulfonamide], the “MKK4 residual percent” value (MKK4) is reported as “+ + +”, the “Selectivity vs. MKK7, ratio PoC(MKK7)/PoC(MKK4)” value (MKK7) is reported as “+++ (PoC(MKK7)/PoC(MKK4) ≥ 30 = “+++”)” and the “Selectivity vs. JNK1, ratio PoC(JNK1)/PoC(MKK4)” value (JNK1) is reported as “+++ (PoC(JNK1)/PoC(MKK4) ≥ 30 = “+++”)”. The “Selectivity vs. BRaf, ratio PoC(BRaf)/PoC(MKK4)” value (BRaf) was “+++ (PoC(BRaf)/PoC(MKK4) ≥ 30 = “+++”)”.
For `CCCS(=O)(=O)Nc1ccc(F)c(C(=O)c2ccc3[nH]c4ncc(-c5ccc(-c6nnn[nH]6)cc5)cc4c3c2)c1F` [Example 4f], the “MKK4 residual percent” value (MKK4) was “+ +”, the “Selectivity vs. MKK7, ratio PoC(MKK7)/PoC(MKK4)” value (MKK7) was “+++ (PoC(MKK7)/PoC(MKK4) ≥ 30 = “+++”)” and the “Selectivity vs. JNK1, ratio PoC(JNK1)/PoC(MKK4)” value (JNK1) was “+++ (PoC(JNK1)/PoC(MKK4) ≥ 30 = “+++”)”. The “Selectivity vs. BRaf, ratio PoC(BRaf)/PoC(MKK4)” value (BRaf) was “+++ (PoC(BRaf)/PoC(MKK4) ≥ 30 = “+++”)”.
For `CS(=O)(=O)Nc1ccc(F)c(C(=O)c2ccc3[nH]c4ncc(-c5ccc(S(N)(=O)=O)cc5)cc4c3c2)c1F` [Example 4j], the “MKK4 residual percent” value (MKK4) was “+ + +”, the “Selectivity vs. MKK7, ratio PoC(MKK7)/PoC(MKK4)” value (MKK7) was “+++ (PoC(MKK7)/PoC(MKK4) ≥ 30 = “+++”)” and the “Selectivity vs. JNK1, ratio PoC(JNK1)/PoC(MKK4)” value (JNK1) was “+++ (PoC(JNK1)/PoC(MKK4) ≥ 30 = “+++”)”. For the same molecule, the “Selectivity vs. BRaf, ratio PoC(BRaf)/PoC(MKK4)” value (BRaf) was “+++ (PoC(BRaf)/PoC(MKK4) ≥ 30 = “+++”)”.
With `CCCS(=O)(=O)Nc1ccc(F)c(C(=O)c2ccc3[nH]c4ncc(-c5ccc(S(N)(=O)=O)cc5)cc4c3c2)c1F` [Example 4b] the “MKK4 residual percent” value (MKK4) was “+ +”, the “Selectivity vs. MKK7, ratio PoC(MKK7)/PoC(MKK4)” value (MKK7) was “+++ (PoC(MKK7)/PoC(MKK4) ≥ 30 = “+++”)” and the “Selectivity vs. JNK1, ratio PoC(JNK1)/PoC(MKK4)” value (JNK1) was “+++ (PoC(JNK1)/PoC(MKK4) ≥ 30 = “+++”)”. For the same molecule, the “Selectivity vs. BRaf, ratio PoC(BRaf)/PoC(MKK4)” value (BRaf) was “+++ (PoC(BRaf)/PoC(MKK4) ≥ 30 = “+++”)”.
In the case of `CCCS(=O)(=O)Nc1ccc(F)c(C(=O)c2ccc3[nH]c4ncc(-c5ccc(C(N)=O)cc5)cc4c3c2)c1F` [Example 4e], the “MKK4 residual percent” value (MKK4) is reported as “+ + +”, the “Selectivity vs. MKK7, ratio PoC(MKK7)/PoC(MKK4)” value (MKK7) is reported as “+++ (PoC(MKK7)/PoC(MKK4) ≥ 30 = “+++”)” and the “Selectivity vs. JNK1, ratio PoC(JNK1)/PoC(MKK4)” value (JNK1) is reported as “+++ (PoC(JNK1)/PoC(MKK4) ≥ 30 = “+++”)”. The “Selectivity vs. BRaf, ratio PoC(BRaf)/PoC(MKK4)” value (BRaf) was “+++ (PoC(BRaf)/PoC(MKK4) ≥ 30 = “+++”)”.
